Here are results for six molecules from ChEMBL document CHEMBL6121025, “Novel Compounds as CDK2 Inhibitors for Treating Cancer” (ACS Med Chem Lett, 2025).

The assay deals with Cyclin-dependent kinase 2/cyclin E1 (Homo sapiens) (UniProt P24864+P24941). The experiment in a line: Inhibition of C-terminal Avi-tagged CDK2/Cyclin E1 (unknown origin) extracted from Escherichia coli assessed as reduction in RB1 phosphorylation at S780 residue incubated for 60 mins in the presence of ATP by TR-FRET assay. It is filed as protein-complex assay. In general terms: TR-FRET usually uses a lanthanide donor and a delayed reading to cut background.
In the case of `O=C1N([C@@H]2CCC[C@@H](O)C2)c2nc(Nc3c[nH]nc3OCC(F)F)ncc2C12CC2`, the INH worked out at 0.005 µM.

Consider `O=C1N([C@@H]2CCC[C@@H](O)C2)c2nc(Nc3c[nH]nc3O[C@@H]3CC3(F)F)ncc2C12CC2`, for which the INH is 0.006 µM.

Consider `O=C1N([C@@H]2CCC[C@@H](O)C2)c2nc(Nc3c[nH]nc3-c3cnn4cccnc34)ncc2C12CC2`, for which the INH turned out to be 0.006 µM.

For the molecule `O=C1N([C@@H]2CCC[C@@H](O)C2)c2nc(Nc3c[nH]nc3O[C@H]3CC3(F)F)ncc2C12CC2`, the INH amounted to 0.006 µM.

`O=C1N([C@@H]2CCC[C@@H](O)C2)c2nc(Nc3c[nH]nc3C(F)F)ncc2C12CC2`: the INH is 0.007 µM.

With `O=C1N([C@@H]2CCC[C@@H](O)C2)c2nc(Nc3c[nH]nc3[C@H]3CC3(F)F)ncc2C12CC2`, the INH came to 0.006 µM.
